Numbering of substitutions follows the chain as printed.
Key:
[1] = molecular target: T1, α1 GlyR (Rattus norvegicus, UniProt P07727); assay: whole-cell voltage clamp, modulation of glycine current; assay type: cell-based; conditions: positive allosteric modulator; glycine at EC10, co-applied; pH 7.4, 20-24 °C
T1 construct: gene Glra1; homomeric α1, expressed in HEK 293 cells from pCI or pcDNA3; A52, I240, G254, S296, K385 (mature numbering); K385 fits the form without the 8-residue loop insert
T1 sequence (P07727 29-449 isoform P07727-2): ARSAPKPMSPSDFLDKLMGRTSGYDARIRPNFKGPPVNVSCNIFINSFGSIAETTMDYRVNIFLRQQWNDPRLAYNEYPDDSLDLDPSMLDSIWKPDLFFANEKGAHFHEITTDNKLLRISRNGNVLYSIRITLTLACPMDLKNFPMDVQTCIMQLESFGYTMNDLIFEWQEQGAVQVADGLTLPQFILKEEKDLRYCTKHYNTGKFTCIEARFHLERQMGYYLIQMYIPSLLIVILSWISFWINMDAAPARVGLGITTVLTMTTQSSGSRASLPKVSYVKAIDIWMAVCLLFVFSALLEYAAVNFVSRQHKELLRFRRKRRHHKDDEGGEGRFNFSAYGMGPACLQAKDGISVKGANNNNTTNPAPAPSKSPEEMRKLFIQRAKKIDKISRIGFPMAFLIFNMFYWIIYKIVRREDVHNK

[2] = molecular target: T2, α2 GlyR (Rattus norvegicus, UniProt P22771); assay: as above; assay type: cell-based; conditions: allosteric inhibitor; glycine at EC10, co-applied; pH 7.4, 20-24 °C
T2 construct: gene Glra2; homomeric α2, expressed in HEK 293 cells; T59, A261, A303 (T59 fits splice form alpha-2A)
T2 sequence (P22771 28-452): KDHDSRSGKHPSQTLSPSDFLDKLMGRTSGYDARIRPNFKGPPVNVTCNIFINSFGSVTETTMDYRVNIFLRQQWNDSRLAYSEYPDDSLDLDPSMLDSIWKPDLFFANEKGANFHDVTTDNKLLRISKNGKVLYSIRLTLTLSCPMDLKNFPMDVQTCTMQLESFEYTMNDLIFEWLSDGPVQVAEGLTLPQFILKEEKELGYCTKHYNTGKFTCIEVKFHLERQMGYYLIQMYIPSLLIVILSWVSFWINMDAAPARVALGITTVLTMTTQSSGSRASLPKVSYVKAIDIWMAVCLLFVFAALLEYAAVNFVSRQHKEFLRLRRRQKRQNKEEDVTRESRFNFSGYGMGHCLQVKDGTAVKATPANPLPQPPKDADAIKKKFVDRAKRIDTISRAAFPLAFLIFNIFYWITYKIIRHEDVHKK

[3] = molecular target: T2, α2 GlyR; assay: as above; assay type: cell-based; conditions: positive allosteric modulator; glycine at EC10, co-applied; pH 7.4, 20-24 °C
[4] = test system: T3, α2α1; assay: whole-cell voltage clamp, concentration-response; assay type: cell-based, Rattus norvegicus; conditions: agonist; pH 7.4, 20-24 °C, -60 mV
T3 construct: gene Glra2; one fused subunit: α2 upstream of the TM3-4 loop (ECD to TM3), then α1 intracellular loop plus TM4; HEK 293
Description: whole-cell voltage clamp, concentration-response on α2α1

[5] = test system: T4, α1α2; assay: whole-cell voltage clamp, concentration-response; assay type: cell-based, Rattus norvegicus; conditions: agonist; pH 7.4, 20-24 °C, -60 mV
T4 construct: gene Glra1; one fused subunit: α1 upstream of the TM3-4 loop (ECD to TM3), then α2 intracellular loop plus TM4; HEK 293
Description: whole-cell voltage clamp, concentration-response on α1α2

[6] = molecular target: T2, α2 GlyR; assay: whole-cell voltage clamp, concentration-response; assay type: cell-based
Description: (§1) whole-cell voltage clamp, concentration-response on α2 GlyR

[7] = molecular target: T5, α2 GlyR (Rattus norvegicus, UniProt P22771, A288G); assay: whole-cell voltage clamp, concentration-response; assay type: cell-based
T5 construct: gene Glra2; homomeric α2, expressed in HEK 293 cells; T59, A261, A303 (T59 fits splice form alpha-2A)
T5 sequence (P22771 28-452 A288G): T2 sequence (P22771 28-452) with A261G
Description: as §1

[8] = molecular target: T6, α2 GlyR (Rattus norvegicus, UniProt P22771, A288G/A330S/T86A); assay: whole-cell voltage clamp, concentration-response; assay type: cell-based
T6 construct: gene Glra2; homomeric α2, expressed in HEK 293 cells; T59, A261, A303 (T59 fits splice form alpha-2A)
T6 sequence (P22771 28-452 T86A/A288G/A330S): T2 sequence (P22771 28-452) with T59A, A261G, A303S
Description: as §1

[9] = molecular target: T7, α2 GlyR (Rattus norvegicus, UniProt P22771, A288G/T86A); assay: whole-cell voltage clamp, concentration-response; assay type: cell-based
T7 construct: gene Glra2; homomeric α2, expressed in HEK 293 cells; T59, A261, A303 (T59 fits splice form alpha-2A)
T7 sequence (P22771 28-452 T86A/A288G): T2 sequence (P22771 28-452) with T59A, A261G
Description: as §1

[10] = molecular target: T8, α2 GlyR (Rattus norvegicus, UniProt P22771, T86A); assay: whole-cell voltage clamp, concentration-response; assay type: cell-based
T8 construct: gene Glra2; homomeric α2, expressed in HEK 293 cells; T59, A261, A303 (T59 fits splice form alpha-2A)
T8 sequence (P22771 28-452 T86A): T2 sequence (P22771 28-452) with T59A
Description: as §1

| SMILES | % potentiation at 10 μM [1] | % change of current at 10 μM [2] | % potentiation at 10 μM [3] | EC50 [4] | EC50 [5] | EC50 [6] | EC50 [7] | EC50 [8] | EC50 [9] | EC50 [10] |
| --- | --- | --- | --- | --- | --- | --- | --- | --- | --- | --- |
| CCCCC/C=C\C/C=C\C/C=C\C/C=C\CCCC(=O)NCC(=O)O [NA-Gly] | 101±11% | −56±5% |  |  |  |  |  |  |  |  |
| CCCCC/C=C\C/C=C\C/C=C\C/C=C\CCCC(=O)NCCO [AEA] | AEA, anandamide |  | showed consistent positive allosteric modulation of all the GlyR isoforms |  |  |  |  |  |  |  |
| NCC(=O)O [glycine] |  |  |  | 111 ± 1 µM | 86 ± 3 µM | 120 ± 6 µM | 217 ± 6 µM | 102 ± 2 µM | 76 ± 2 µM | 63 ± 1 µM |
